Biological target: T1, Leukotriene A-4 hydrolase (Homo sapiens, UniProt P09960)
T1 sequence (P09960 whole entry): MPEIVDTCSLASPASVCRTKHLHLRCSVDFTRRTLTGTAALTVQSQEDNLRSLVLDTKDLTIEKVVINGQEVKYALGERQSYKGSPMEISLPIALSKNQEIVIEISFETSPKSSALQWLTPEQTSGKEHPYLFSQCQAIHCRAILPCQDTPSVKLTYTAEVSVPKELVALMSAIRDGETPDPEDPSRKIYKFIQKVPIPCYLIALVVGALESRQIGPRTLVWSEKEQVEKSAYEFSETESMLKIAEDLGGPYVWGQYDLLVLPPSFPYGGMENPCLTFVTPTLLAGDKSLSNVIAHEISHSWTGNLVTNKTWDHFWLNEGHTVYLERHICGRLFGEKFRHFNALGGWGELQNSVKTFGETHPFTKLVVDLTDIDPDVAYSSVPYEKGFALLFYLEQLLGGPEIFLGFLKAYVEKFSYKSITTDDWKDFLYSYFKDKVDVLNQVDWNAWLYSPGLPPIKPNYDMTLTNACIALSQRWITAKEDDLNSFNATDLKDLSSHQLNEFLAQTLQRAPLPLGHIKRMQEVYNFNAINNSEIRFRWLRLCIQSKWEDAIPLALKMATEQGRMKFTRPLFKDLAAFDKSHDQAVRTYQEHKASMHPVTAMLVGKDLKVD
Assay: Inhibition of peptidase activity of human recombinant LTA4H expressed in Escherichia coli BL21-AI/pRARE

## c1ccc(NCc2cccnc2)cc1
  IC50: 1320 µM

## Oc1ccc2[nH]ccc2c1
  IC50: > 1000 µM

## CNCc1ccccc1-c1cccs1
  IC50: 1080 µM

## Fc1ccc2[nH]ccc2c1
  IC50: > 1000 µM

## OC(c1ccncc1)c1ccc(OCCN2CCCC2)cc1 (centres undefined)
  IC50: 202 µM

## O=C(O)C1CCN(CCOc2ccc3[nH]ccc3c2)CC1
  IC50: 1490 µM

## c1cc2cc(OCCN3CCCC3)ccc2[nH]1
  IC50: 321 µM

## c1ccc(CNc2ccc(OC[C@H]3CCCN3)cc2)cc1
  IC50: 0.207 µM

## Oc1ccc(CCc2cc(O)cc(O)c2)cc1 [DIHYDRORESVERATROL]
  IC50: 145 µM
